These results are taken from patent publication US20050279350A1, “Methods and apparatus for relieving headaches, rhinitis and other common ailments” (priority 1999, published 2005).

Structures are written as SMILES.

The test system of the data set is mucous membrane of the nose, nasal passages, and mouth. As to the kind of experiment: Effective and tolerable carbon dioxide flows found by the inventors (description). It is filed as in vivo, human. The source says:
Furthermore, chronic inflammation of the mucosa and associated distress, caused by extended exposure to allergens and/or antigens, may be relieved within a few minutes by repeating such carbon dioxide applications. A possible mechanism of action of the above described local carbon dioxide treatment is the following. Creating a high concentration of carbon dioxide (hypercapnia) by infusing it into the nasal passages causes a very fast lowering of the pH (making more acidic) of the mucous membranes depressing the neuronal activity (inhibiting inflammatory mediator release such as histamine) of the nerves that supply the nasal mucous membranes and connect directly to the brainstem. Asthma is known to be a comorbid disease to allergic rhinitis. […] In addition, it is known that oxygenation is improved in patients with status asthmaticus, chronic obstructive pulmonary disease, and bronchiolitis by inhalation of helium. Also, inhaled nitric oxide improves the oxygenation and ventilation of most children with acute, hypoxic respiratory failure. For this reason, these respiratory ailments can be reduced or relieved by administering the above-described treatment using carbon dioxide or helium or nitric oxide. Furthermore, headaches (e.g., migraine headaches, tension-type headaches, cluster headaches, jaw pain, facial pain) are thought to be due to triggers creating a hyperexcitability state of nerves releasing inflammatory mediators such as histamine and serotonin. For this reason, headaches can be reduced or relieved by administering the above-described carbon dioxide treatment. Epilepsy, also a nervous hyperexcitability state, is known to be a comorbid disease to headaches and antiepileptic medications are used for migraine prevention. For this reason, epilepsy can be reduced or relieved by administering the above-described carbon dioxide treatment. […] Furthermore, other gases such as nitric oxide, oxygen, helium, and others may be administered similarly as therapeutic gases via the convenient hand-held easily controlled dispenser.
Furthermore, it is desirable that the user be able to conveniently but precisely and controllably select a rate and duration of carbon dioxide flow that lies between the lower limit of effectiveness and the upper limit of tolerance. […] Flows as low as 1 cc/sec for 1-2 seconds into the nose are effective for suppression of onset of acute allergic symptoms, whereas flows of 4-5 cc/sec for 5-10 seconds are typically selected for optimum relief from a mild chronic allergy attack. For severely inflamed mucosa and/or for injection into the mouth, flows as high as 10 cc/sec or higher for as long as 15 seconds or longer often are selected for optimum relief. For the treatment of tension and migraine headaches, the flow durations can be substantially longer, as generally set forth in the Dosage Guideline (Table I) above.
At low flow rates, the presence of the carbon dioxide produces a “tingling” sensation similar to that produced during drinking of carbonated beverages that inadvertently enter the nasal passages e.g., “bubbles up the nose”. This is the effective rate and the tingling is a welcome sensation because it usually coincides with immediate relief of symptoms. Above a certain subjectively determined flow rate the sensation becomes unpleasant, which may be described as a “stinging” or “burning” sensation. At a still higher flow rate (maximum tolerable rate), the stinging sensation becomes intolerable and subjects remove the device from their nostril. […] More typically, an injection rate of up to 10 cc/sec can be tolerated for 5 seconds or more into the nose by most users and into the mouth by almost all users. It must be noted, however, that the tolerance level depends strongly on the sequential phase of the application and on the degree of inflammation and/or pain at that phase. […]

Regarding `O=C=O` [carbon dioxide], the tolerance level is, setting by setting: (a few individuals, a second or less of injection into the nose) 1-2 cc/sec; (typically, at the onset of the first carbon dioxide injection) less than 3 cc/sec. Further, the “suppression of onset of acute irritation of the mucosa” value (bathing mucous membrane of nose, nasal passages and mouth with gaseous carbon dioxide) was “times as short as one second can suppress the onset of acute irritation of the mucosa”. For the setting “for 1-2 seconds into the nose, suppression of onset of acute allergic symptoms”, this compound returned an effective flow not below 1 cc/sec. The “flow typically selected for optimum relief” value (for 5-10 seconds, mild chronic allergy attack) is 4-5 cc/sec. Further, the tolerated injection rate entry (for 5 seconds or more, into the nose by most users and into the mouth by almost all users) is listed as “up to 10 cc/sec”. Besides, the “flow often selected for optimum relief” value (severely inflamed mucosa and/or injection into the mouth, for as long as 15 seconds or longer) was not below 10 cc/sec.
